# Laboratory results published in PubChem BioAssay AID328 (DTP/NCI, 2004).
# Inconclusive results and toxic doses are left out.
# System: BDF1 mice, P388 leukemia ip, median survival T/C
# Test: NCI In Vivo Anticancer Drug Screen. Data for tumor model P388 Leukemia (intraperitoneal) in B6D2F1 (BDF1) mice
# Conditions: endpoint: median survival time, higher = longer survival
# Method in brief: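 Transplantable tumour in mice; compound vs vehicle dosing; survival scored; ratio of treated to control reported.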
# [1] = dose: 100.0 mg/kg/injection, schedule: Q01DX009 (ip), vehicle: Klucel (hydroxypropylcellulose) (HPC)
# [2] = dose: 100.0 mg/kg/injection, schedule: Q04DX003 (ip), vehicle: Klucel (hydroxypropylcellulose) (HPC)
# [3] = dose: 200.0 mg/kg/injection, schedule: Q01DX009 (ip), vehicle: Klucel (hydroxypropylcellulose) (HPC)
# [4] = dose: 200.0 mg/kg/injection, schedule: Q04DX003 (ip), vehicle: Klucel (hydroxypropylcellulose) (HPC)
# [5] = dose: 400.0 mg/kg/injection, schedule: Q01DX009 (ip), vehicle: Klucel (hydroxypropylcellulose) (HPC)
# [6] = dose: 400.0 mg/kg/injection, schedule: Q04DX003 (ip), vehicle: Klucel (hydroxypropylcellulose) (HPC)
# [7] = dose: 100.0 mg/kg/injection, schedule: Q04DX003 (ip), vehicle: saline with Tween-80
# [8] = dose: 200.0 mg/kg/injection, schedule: Q04DX003 (ip), vehicle: saline with Tween-80
smiles,measurement,setting,value
Cc1c(OCc2ccccc2)cccc1[N+](=O)[O-],T/C,"dose: 100.0 mg/kg/injection, schedule: Q01DX009 (ip), vehicle: other",109 % of control
same,T/C,"dose: 100.0 mg/kg/injection, schedule: Q04DX003 (ip), vehicle: other",113 % of control
same,T/C,"dose: 200.0 mg/kg/injection, schedule: Q01DX009 (ip), vehicle: other",119 % of control
same,T/C,"dose: 200.0 mg/kg/injection, schedule: Q04DX003 (ip), vehicle: other",100 % of control
same,T/C,"dose: 400.0 mg/kg/injection, schedule: Q01DX009 (ip), vehicle: other",109 % of control
same,T/C,"dose: 400.0 mg/kg/injection, schedule: Q04DX003 (ip), vehicle: other",109 % of control
CNc1nc2ncn(C)c2c(=O)[nH]1,T/C,"dose: 100.0 mg/kg/injection, schedule: Q01DX009 (ip), vehicle: saline",100 % of control
same,T/C,"dose: 200.0 mg/kg/injection, schedule: Q01DX009 (ip), vehicle: saline",109 % of control
same,T/C,"dose: 400.0 mg/kg/injection, schedule: Q01DX009 (ip), vehicle: saline",95 % of control
c1ccc(N2CCNCC2)cc1,T/C,"dose: 6.25 mg/kg/injection, schedule: Q04DX003 (ip), vehicle: saline sonified",95 % of control
same,T/C,"dose: 12.5 mg/kg/injection, schedule: Q04DX003 (ip), vehicle: saline sonified",100 % of control
same,T/C,"dose: 25.0 mg/kg/injection, schedule: Q04DX003 (ip), vehicle: saline sonified",104 % of control
C=C(C)C(=O)/C(=C/C(=O)O)OC,T/C,"dose: 12.5 mg/kg/injection, schedule: Q01DX010 (ip), vehicle: saline",113 % of control
same,T/C,"dose: 25.0 mg/kg/injection, schedule: Q01DX010 (ip), vehicle: saline",109 % of control
same,T/C,"dose: 50.0 mg/kg/injection, schedule: Q01DX010 (ip), vehicle: saline",118 % of control
CCOC(=O)C(C(=O)OCC)C1c2ccccc2C(=NO)c2ccccc21 (configuration not stated),T/C,[1],100 % of control
same,T/C,[2],112 % of control
same,T/C,[3],109 % of control
same,T/C,[4],104 % of control
same,T/C,[5],109 % of control
same,T/C,[6],91 % of control
CN(C)C=C1C(=O)N(C)C(=O)N(C)C1=O,T/C,"dose: 100.0 mg/kg/injection, schedule: Q04DX002 (ip), vehicle: saline",101 % of control
same,T/C,"dose: 200.0 mg/kg/injection, schedule: Q04DX002 (ip), vehicle: saline",108 % of control
same,T/C,"dose: 400.0 mg/kg/injection, schedule: Q04DX002 (ip), vehicle: saline",112 % of control
C=CCCCCn1c2ccccc2c2c(C)c3cnccc3c(C)c21,T/C,[7],109 % of control
same,T/C,[8],100 % of control
same,T/C,"dose: 400.0 mg/kg/injection, schedule: Q04DX003 (ip), vehicle: saline with Tween-80",118 % of control
CCCCCCCCCCCC[n+]1ccc2ccccc2c1,T/C,"dose: 1.0 mg/kg/injection, schedule: Q01DX010 (ip), vehicle: saline",115 % of control
O=C(OCC#CC#CCOC(=O)c1ccccc1)c1ccccc1,T/C,[1],104 % of control
same,T/C,[2],100 % of control
same,T/C,[3],113 % of control
same,T/C,[4],90 % of control
same,T/C,[5],104 % of control
same,T/C,[6],109 % of control
COC(=O)C(Cc1ccc(N(CCCl)CCCl)cc1)N=NNc1nc[nH]c1C(N)=O (configuration not stated),T/C,"dose: 14.0 mg/kg/injection, schedule: Q04DX003 (ip), vehicle: saline",154 % of control
same,T/C,"dose: 33.0 mg/kg/injection, schedule: Q04DX003 (ip), vehicle: saline",195 % of control
same,T/C,"dose: 50.0 mg/kg/injection, schedule: Q04DX003 (ip), vehicle: saline",213 % of control
c1ccc2c(c1)OP(OP1Oc3ccccc3O1)O2,T/C,"dose: 25.0 mg/kg/injection, schedule: Q01DX009 (ip), vehicle: saline",95 % of control
same,T/C,"dose: 50.0 mg/kg/injection, schedule: Q01DX009 (ip), vehicle: saline",113 % of control
same,T/C,"dose: 150.0 mg/kg/injection, schedule: Q04DX003 (ip), vehicle: saline",113 % of control
CC(C)CSc1nc(N)nc2nc[nH]c12,T/C,[7],109 % of control
same,T/C,[8],109 % of control
